We go through two compounds from patent US20060106049A1, “Histone deacetylase inhibitors and methods of use” (The University of chicago, priority 2004, published 2006).

Data set [1] relates to HDAC. The note with it: formed from FK228 by dithiothreitol reduction in vitro; cited from earlier work.
For data set [2], the system named is p15INK4B (P15). Briefly: Gene re-expression by REAL-time RT-PCR in peripheral blood mononuclear cells (p15). It is filed as in vivo, human. The note with it: normalized to ABL; p-0.01. How it is done: (§1) FK228 (Fujisawa, Osaka, Japan) was administered intravenously over four hours at a dose of 13.3 mg/m^2/d on days 1, 8, and 15 of a 28-day cycle. Peripheral blood mononuclear cells were obtained prior to (hour 0) and 4 hours (hour 4) and 24 hours (hour 24) after dosing on days 1 and 8 and used to evaluate histone acetylation by flow cytometry and gene re-expression by REAL-time RT-PCR. Target genes of interest include MDR1, a target of HDI-mediated upregulation, and p15^INK4B (P15), a target of DNA hypermethylation in AML.
(§2) MDR1 and p15 copy numbers were expressed as a normalized quotient of MDR1 and p15, respectively, to the housekeeping gene ABL.
(Quantitative PCR measures a nucleic acid by following its amplification.)

For data set [3], the system named is HDAC. The note with it: cited from earlier work.
In data set [4] the test system is MDR1. Briefly: Gene re-expression by REAL-time RT-PCR in peripheral blood mononuclear cells (MDR1). In kind it is in vivo, human. The note with it: hr 4 on days 1 and 8; normalized to ABL; p=0.04. As for the experimental part:
as §1, §2

Data set [5] has as its system bone marrow blasts. The data set is described as follows: Phase II study of depsipeptide in relapsed or refractory AML: anti-leukemic response. In kind it is in vivo, human.
Source text: (§3) Eighteen patients (median age=60 years, age range=25-77 years) with relapsed or refractory AML were enrolled in a multicenter Phase II study of depsipeptide for the treatment of AML. Patients were divided into two groups upon entry into the study: Group A (n=14), which included patients without specific chromosomal abnormalities correlated with recruitment of histone deacetylases; and Group B (n=4), which included patients with chromosomal aberrations associated with recruitment of histone deacetylases, such as t(8;21), inv 16, or t(15; 17).
as §1

Data set [6] in a line: Tolerability in Phase II AML study. In kind it is in vivo, human. To be noted: AML patients, 13.3 mg/m2/d iv days 1, 8, 15 of 28-day cycle.
Source text: as §3, §1

Data set [7] deals with H3 acetylation. The data set is described as follows: Histone acetylation by flow cytometry in peripheral blood mononuclear cells. In kind it is in vivo, human. How it is done:
as §1

“Also recorded” adds a separate entry of the source. A value given as a limit tells only on which side of the number the result lay.

As to `C/C=C1\NC(=O)[C@@H](CS)NC(=O)[C@@H](C(C)C)NC(=O)C[C@@H](/C=C/CCS)OC(=O)[C@H](C(C)C)NC1=O` [FR135313], in data set [1], the HDAC inhibition entry is reported as “capable of inhibiting HDAC”.

With `C/C=C1\NC(=O)[C@H]2CSSCC/C=C/[C@H](CC(=O)N[C@H](C(C)C)C(=O)N2)OC(=O)[C@H](C(C)C)NC1=O` [FK228], the “mean increase in p15 expression” value in data set [2] was 91%. In addition, the “HDAC inhibition in vivo” value in data set [3] was “strongly inhibits HDAC”. The “overall mean increase in MDR1 expression” value in data set [4] was 41%. Also, the “response of patient having a t(4;21) translocation” value in data set [5] (13.3 mg/m2/d iv days 1, 8, 15 of 28-day cycle) was “responded to the treatment”. The “objective evidence of response (complete or partial remission) or other anti-leukemic activity” value in data set [5] (Group A (n=14), patients without chromosomal abnormalities correlated with HDAC recruitment, 13.3 mg/m2/d iv over 4 h, days 1, 8, 15 of 28-day cycle) was “No objective evidence of response”. Also, in data set [5] (Group B (n=4), chromosomal aberrations associated with HDAC recruitment, after one cycle, 13.3 mg/m2/d iv), the “patients exhibiting marked reduction of bone marrow blasts” value amounted to 50%. Further, the “time to increase in bone marrow blasts following cessation of therapy” value in data set [5] (both responding Group B patients, antileukemic effect short-lived) is given as at most 30 days. Also, the “hematopoiesis in responding patients” value in data set [5] (responders of Group B, following the second cycle of treatment, 13.3 mg/m2/d iv) is reported as “return to substantially normal hematopoiesis; also recorded: recovery of near-normal hematopoiesis”. For the same compound, the “bone marrow blast percentage in responding patients” value in data set [5] (responders with AML1 translocations (t(8;21), t(4;21)), normocellular marrow after one cycle, 13.3 mg/m2/d iv) is recorded as below 5%. In data set [6], the “most common adverse effects” value is “grade ½ nausea, vomiting, and fatigue”; the tolerability result is on record as “well tolerated”. In addition, the “patients exhibiting increase H3 acetylation” value in data set [7] (4 of 14 patients) was 28%. In addition, the “patients exhibiting an increase in H3 acetylation” value in data set [7] (Group B cohort (3 of 4), at 4 and/or 24 hours after dosing) worked out at 75%.
